Assays:
Bel-7402 cells = experiment: MTS cell viability assay; format: cell-based, human; conditions: Bel-7402, monotreatment, 120 hours, dose-dependent
Description: (§1) Human hepatoma cell line Bel-7402 and Bel-7404 were purchased from the Cell Resource Center of Shanghai Institutes for Biological Sciences, CAS, and routinely cultured at 37° C. under 5% CO2, in a culture medium of RPMI-1640 (Gibco) containing 10% fetal bovine serum (FBS; Gibco) and 1% Penicillin-Streptomycin (HyClone). Trypsin was purchased from Gibco. Crystal violet, RNase A (10 mg/mL) solution, propidium iodide (PI), Triton X-100 were purchased from Sangon Biotech (Shanghai) Co., Ltd. MTS cell viability assay kits, Caspase-Glo 3/7 assay kits were purchased from Promega. Nude mice were purchased from Guangdong Medical Laboratory Animal Center.
(§2) The Bel-7402, Bel-7404 cell lines were digested by trypsin, collected and counted, and then seeded in a 96-well cell culture plate at the density of 3,000 cells/180 μL in each well, and cultured at 37° C. under 5% CO2. […] After incubation at 37° C. for about 1 hour, the absorbance of each well was read at 490 nm wavelength with a microplate reader. The OD490-T value of each administered well and the OD490-T0 value of the negative control well after background deduction were obtained by subtracting OD490-BLK from the absorbance reading value of each well.
(§3) The relative survival rate of the cells in each administered well was calculated according to the following formula: […]

Bel-7404 cells [1] = experiment: MTS cell viability assay; format: cell-based, human; conditions: Bel-7404, monotreatment, 120 hours, dose-dependent
Description: as §1, §2, §3

SMMC-7721 cells = experiment: Colony forming assay (crystal violet); format: cell-based; conditions: SMMC-7721, Chiauranib monotreatment 5 μM, 2-3 weeks
Description: (§4) The SMMC-7721, Bel-7404 cell lines at the log phase stage were digested by trypsin, collected and counted, then seeded in a 6-well cell culture plate at the density of 500 cells/1.8 mL in each well, and cultured at 37° C. under 5% CO2. After cultured overnight, the cells were administered according to the grouping and the final concentration dosages shown in FIG. 2 (the final volume of each well after administration was 2 mL). The culture media and drugs were replaced every 3 days to keep the culture system and the dosage for each well stable.
After cultured for 2-3 weeks, when there were visible cell colonies in the culture plate, the culture was terminated. The supernatants were discarded, and the plate was washed carefully with PBS twice. 1 mL of 75% ethanol solution was added to each well to fix the cells, and the fixative solution was discarded after 15 min. Then the cells were stained for 15 min by adding 1 mL of crystal violet solution to each well, and the staining solution was washed slowly with running water and air dried. The stained positive cell colonies in each well of the culture plate were photographed to compare their density.

Bel-7404 cells [2] = experiment: Colony forming assay (crystal violet); format: cell-based, human; conditions: Bel-7404, Chiauranib monotreatment 3 μM, 2-3 weeks
Description: as §1, §4
After cultured for 2-3 weeks, when there were visible cell colonies in the culture plate, the culture was terminated. The supernatants were discarded, and the plate was washed carefully with PBS twice. […]

Bel-7404 cells [3] = experiment: Cell cycle analysis by flow cytometry with PI staining; format: cell-based, human; conditions: Bel-7404, 3 μM Chiauranib, 48 hours
Description: as §1
The cells of Bel-7404 at the log phase stage were digested by trypsin, collected and counted. The cells were seeded in a 6-well plate at the density of 10^6 cells per well in a total of 18 wells. […] The fixed samples were allowed to stand at 4° C. for more than 12 hours, and analyzed by the flow cytometry assay within 1 week.
PBS, 10 mg/mL PI stock solution, 10 mg/mL RNase A solution and Triton X-100 were mixed at a ratio of 1000:5:2:1 to form a working dye solution. […] The filtrate was analyzed for cell cycles by the flow cytometry assay (each sample counted 20,000 cells).

Bel-7404 cells [4] = experiment: Cell apoptosis by Caspase 3/7 assay; format: cell-based, human; conditions: Bel-7404, 3 μM Chiauranib monotreatment, 48 hours
Description: as §1
The cells of Bel-7404 at the log phase stage were digested by trypsin, collected and counted. The cells were seeded in a 96-well plate at density of 2000 cells per well in a total of 18 wells. […]
The 96-well plates containing the treated cells were taken out of the incubator and equilibrated to room temperature. […] The […] value of each sample was measured by a luminometer. The […] value can directly reflect the proportion of apoptotic cells in each well, and can be used to calculate and compare the cell viability of the different groups.

Bel-7404 cell xenograft = experiment: Tumor cell xenograft model in nude mice; format: in vivo; conditions: 2.5 mg/kg Chiauranib, intragastrically once a day, 33 days, vs solvent control
Description: The cells of Bel-7404 were cultured to expend to a large amount, and maintained at a log phase state. After the number of the cells reached the required amount, they were digested with trypsin, collected, washed twice with a large amount of PBS to remove the trypsin and serum, and centrifuged at 800 rpm for 10 min at room temperature and the cell supernatants were discarded. The cells were resuspended in the FBS-free RPIM-1640 culture medium, and adjusted the cell density to 10^7/300 μL.
Under aseptic conditions, each nude mouse was injected subcutaneously on the back with 300 μL/injection, one injection per nude mouse. A 1 mL disposable medical syringe for injection was used, and the injection site and direction were roughly same for each nude mouse.
One day after cell implanting, the nude mice were randomly divided into four groups (namely, solvent control group, Chiauranib 2.5 mg/kg group, Chidamide 20 mg/kg group and the combined administration group), housed in separate cages after marked, administered in groups and tumor formation of each mouse was observed every day. […] Every 2 days, the longest diameter of the tumor (length) and the widest diameter (width) perpendicular to the longest diameter were measured with a vernier caliper. The tumor volume was calculated by the formula TS=length×(width)^2/2 and recorded. […]

COc1ccc2c(Oc3ccc4c(C(=O)Nc5ccccc5N)cccc4c3)ccnc2c1 [Chiauranib]
inhibitory effect on tumor cell proliferation (survival rate) (Bel-7402 cells): a certain inhibitory effect on tumor cell proliferation
inhibitory effect on tumor cell proliferation (survival rate) (Bel-7404 cells [1]): a certain inhibitory effect on tumor cell proliferation
formation of cell colonies (SMMC-7721 cells): relatively significant effect on the formation of cell colonies
formation of cell colonies (Bel-7404 cells [2]): affected somewhat on the formation of cell colonies
cells in G2/M phase and polyploid cells (Bel-7404 cells [3]): slightly increased
proportion of apoptotic cells (Bel-7404 cells [4]): increased the proportion of apoptotic cells to a certain extent
tumor volume of tumor-bearing nude mice (Bel-7404 cell xenograft): inhibited to a certain extent
